Test results as given in patent EP0576227A2, “2'-Deoxy-2',2'-difluoro(2,6,8-substituted) purine nucleosides having anti-viral and anti-cancer activity and intermediates” (ELI LILLY AND COMPANY, priority 1992, dated 1993).

Experiments:
[1] = system: HC1 human colon carcinoma; assay: HC1 human colon carcinoma xenograft in mice, tumor weight inhibition; type: in vivo, Nu/Nu CD-1 mice; details: 14 day delay
Description: The HC1 human colon carcinoma xenograft was obtained in 1987 from Drs. Peter and Janet Houghton, St. Jude Children's Hospital, Memphis, TN. The tumor is a moderately well-differentiated adenocarcinoma of the ascending colon [British Journal of Cancer, 37, p 213-223 (1987)]. The first passage tumor was stored in liquid nitrogen using standard techniques. The tumors were maintained in serial passage Nu/Nu CD-1 mice (Charles River Laboratories, Portage, MI.).
The study testing the efficacy of these compounds against HC1 human colon carcinoma was initiated by removing a tumor from passage animals and mincing it into 1 to 3 mm square fragments using sterile techniques. Tumor pieces were checked for sterility using both an Antibiotic Medium 1 and Brain Heart Infusion (Difco; Detroit, MI). Tumor pieces were implanted subcutaneously in the auxilary region of recipient mice by trocar. Drug therapy on the appropriate schedule was initiated 14 days after tumor implantation. Drugs were dissolved in Emulphor for all experiments. All animals were weighed at the beginning and end of drug treatment. Food and water were provided ad libitum. On day 14 after the initiation of therapy, two dimensional measurements (width and length) of all tumors were taken using electronic calipers interfaced to a computer. Tumor weights were calculated from these measurements using the following formula: Tumor Weight (mg) = Tumor Length (mm) X Tumor Width (mm)²/2
For all data, the tumor weight was rounded to the nearest tenth of a gram for analysis. No group is included in the analysis for therapeutic activity in which deaths attributable to drug toxicity exceeded 20 percent of the treated group. Compounds are considered active if more than 60 percent inhibition of tumor growth, as determined by tumor weight, is achieved at maximally tolerated doses.
In Table 2 which follows, Column 1 gives the example number of the compound tested; Column 2, the dose level; Column 3, the route administered; Column 4, the dosage schedule; Column 5, the percent inhibition of the tumor; and Column 6; the toxic deaths observed prior to completion of the study.

[2] = system: Human Cytomegalovirus (HCMV) strain AD169; assay: Human Cytomegalovirus Test (plaque inhibition in WI-38 cells); type: cell-based; details: read-out: Percent Plaque Inhibition at Specified µg/ml conc.
Description: WI-38 cells (American Type Culture Collection; CCL-35) were seeded into 24-well plates in MEM media (GIBCO) supplemented with 10% fetal bovine serum and penicillin/streptomycin. The plates wre incbated at 37°C, in 5 percent carbon dioxide in a humidified incubator for 3 days. Human Cytomegalovirus (HCMV) strain AD169 (American Type Culture Collection) was added to each well (40 plaque forming unites in 100 µl of media) and the virus was allowed to adsorb to the cells for 2 hours at room temperature. The compound of Example 5 was dissolved in 100 percent dimethylsulfoxide at a concentration of 20 mgs/ml and diluted with media to yield final concentrations of 50, 25, 12.5, 6.25, 3.13, 1.6, 0.8, 0.4, 0.2, and 0.1 µg/ml in one set of experiments and 32, 10, 3.2, 1, and 0.32 µg/ml in another set of experiments. Each concentration was done in duplicate. In all experiments, Cytovene (DHPG) was used as a positive control.
The infected cells were incubated for 10 days at 37°C, 5 percent carbon dioxide, in an humidified incubator without changes of media. After incubation, the cells were fixed for at least 15 minutes with 10 percent formalin and rinsed with water. After rinsing, the cells were stained for at least 15 minutes with crystal violet and allowed to dry. HCMV induced plaques were counted with the aid of an iverted microscope. The number of viral plaques appearing in cells treated with each concentration of the Example 5 compound was compared to the number of viral plaques in cells left untreated ("no-drug control") and the percent inhibition of viral plaque formation was calculated. The concentration of the Example 5 compound required to inhibit viral plaque formation by 50 percent was determined using linear regression analysis.

[3] = 05 mg/kg, Intra-Peritoneal 0.5 ml, 1,3,5,7 9
[4] = 10 mg/kg, Intra-Peritoneal 0.5 ml, 1,3,5,7 9
[5] = 20 mg/kg, Intra-Peritoneal 0.5 ml, 1,3,5,7 9
[6] = 40 mg/kg, Intra-Peritoneal 0.5 ml, 1,3,5,7 9
[7] = 80 mg/kg, Intra-Peritoneal 0.5 ml, 1,3,5,7,9

CNc1nc(N)nc2c1ncn2[C@@H]1O[C@H](CO)[C@@H](O)C1(F)F [Example 5, 2-deoxy-2,2-difluoro-D-ribofuranosyl-1-β-(2-amino-6-methylaminopurine)]
Percent Inhibition of Tumor [1, 3]: 92% | Toxic Deaths [1, 3]: 0/8 | Percent Inhibition of Tumor [1, 4]: 92% | Toxic Deaths [1, 4]: 0/8 | Percent Inhibition of Tumor [1, 5]: 93% | Toxic Deaths [1, 5]: 0/8 | Percent Inhibition of Tumor [1, 6]: 94% | Toxic Deaths [1, 6]: 1/8 | Percent Inhibition of Tumor [1, 7]: 95% | Toxic Deaths [1, 7]: 0/8 | inhibition at 0.2 µg/mL ([2]; Human betaherpesvirus 5, AD169, 240 h, 0.2 µg/ml, WI-38 cells, 10 days): 24% | inhibition at 0.4 µg/mL ([2]; Human betaherpesvirus 5, AD169, 240 h, 0.4 µg/ml, WI-38 cells, 10 days): 17.2% | inhibition at 0.8 µg/mL ([2]; Human betaherpesvirus 5, AD169, 240 h, 0.8 µg/ml, WI-38 cells, 10 days): 38% | inhibition at 1.6 µg/mL ([2]; Human betaherpesvirus 5, AD169, 240 h, 1.6 µg/ml, WI-38 cells, 10 days): 41.4% | inhibition at 6.25 µg/mL ([2]; Human betaherpesvirus 5, AD169, 240 h, 6.25 µg/ml, WI-38 cells, 10 days): 86.2% | inhibition at 12.5 µg/mL ([2]; Human betaherpesvirus 5, AD169, 240 h, 12.5 µg/ml, WI-38 cells, 10 days): 81% | inhibition at 25 µg/mL ([2]; Human betaherpesvirus 5, AD169, 240 h, 25 µg/ml, WI-38 cells, 10 days): 89.6% | inhibition at 3.12 µg/mL ([2]; Human betaherpesvirus 5, AD169, WI-38, 240 h): 62%
